In patent publication US10450347B2, “Immunomodulators” (BRISTOL-MYERS SQUIBB COMPANY, priority 2015, dated 2019):
Starred links: 1 amine or outer side, 2 acyl side, 3 side chain; linkers in the order of their positions; H or OH if unused. Positions of bridges follow the written chain, without caps; N, C: chain ends. Non-standard residues stand in square brackets, D forms with d. Residues, ends and D or L forms follow the SMILES beside them. ξ: configuration not given here. Tyrψ(CN4)Ala = C[C@@H](C(=O)[*:2])n1nnnc1[C@H](Cc1ccc(O)cc1)N[*:1]; X1 = CCCC[C@@H](C(=O)[*:2])n1nnnc1[C@H](Cc1c[nH]c2ccccc12)N[*:1]; Morpholine(3S-CO) = O=C(O)[C@@H]1COCCN1; Bta = N[C@@H](Cc1csc2ccccc12)C(=O)O; Hyp = O=C(O)[C@@H]1C[C@@H](O)CN1; NMeNle = CCCC[C@H](NC)C(=O)O; ξH = NC(Cc1c[nH]cn1)C(=O)O; NMeA = CN[C@@H](C)C(=O)O; Orn = NCCC[C@H](N)C(=O)O; Dab = NCC[C@H](N)C(=O)O; Dap = NC[C@H](N)C(=O)O; ξC = NC(CS)C(=O)O

Target: T1, PD-1-Ig/PD-L1-His (Homo sapiens, UniProt Q9NZQ7)
T1 construct: [hPD-L1(19-239)-tobacco vein mottling virus protease cleavage site (TVMV)-His]; made in house; host or cells: HEK293T cells
Experiment: PD-1/PD-L1 Homogenous Time-Resolved Fluorescence (HTRF) binding assay
Settings: inhibition of PD-1-Ig binding to PD-L1-TVMV-His
Text: The ability of the macrocyclic peptides of the present disclosure to bind to PD-L1 was investigated using a PD-1/PD-L1 Homogenous Time-Resolved Fluorescence (HTRF) binding assay.
Homogenous Time-Resolved Fluorescence (HTRF) Assays of Binding of Soluble PD-1 to Soluble PD-L1. Soluble PD-1 and soluble PD-L1 refers to proteins with carboxyl-end truncations that remove the transmembrane-spanning regions and are fused to heterologous sequences, specifically the Fc portion of the human immunoglobuling G sequence (Ig) or the hexahistidine epitope tag (SEQ ID NO: 3) (His). All binding studies were performed in an HTRF assay buffer consisting of dPBS supplemented with 0.1% (w/v) bovine serum albumin and 0.05% (v/v) Tween-20. For the PD-1-Ig/PD-L1-His binding assay, inhibitors were pre-incubated with PD-L1-His (10 nM final) for 15 m in 4 μl of assay buffer, followed by addition of PD-1-Ig (20 nM final) in 1 μl of assay buffer and further incubation for 15 m. PD-L1 fusion proteins from either human, cynomologous macaques, mouse, or other species were used. HTRF detection was achieved using europium crypate-labeled anti-Ig monoclonal antibody (1 nM final) and allophycocyanin (APC) labeled anti-His monoclonal antibody (20 nM final). Antibodies were diluted in HTRF detection buffer and 5 μl was dispensed on top of binding reaction. The reaction was allowed to equilibrate for 30 minutes and signal (665 nm/620 nm ratio) was obtained using an EnVision fluorometer. Additional binding assays were established between PD-1-Ig/PD-L2-His (20 and 5 nM, respectively), CD80-His/PD-L1-Ig (100 and 10 nM, respectively) and CD80-His/CTLA4-Ig (10 and 5 nM, respectively). Binding/competition studies between biotinylated Compound No. 71 and human PD-L1-His were performed as follows. Macrocyclic peptide inhibitors were pre-incubated with PD-L1-His (10 nM final) for 60 minutes in 4 μl of assay buffer followed by addition of biotinylated Compound No. 71 (0.5 nM final) in 1 μl of assay buffer. Binding was allowed to equilibrate for 30 minutes followed by addition of europium crypated labeled Streptavidin (2.5 pM final) and APC-labeled anti-His (20 nM final) in 5 μl of HTRF buffer. The reaction was allowed to equilibrate for 30 m and signal (665 nm/620 nm ratio) was obtained using an EnVision fluorometer.
Recombinant Proteins. Carboxyl-truncated human PD-1 (amino acids 25-167) with a C-terminal human Ig epitope tag [hPD-1 (25-167)-3S-IG] and human PD-L1 (amino acids 18-239) with a C-terminal His epitope tag [hPD-L1(19-239)-tobacco vein mottling virus protease cleavage site (TVMV)-His] were expressed in HEK293T cells and purified sequentially by recombinant Protein A affinity chromatography and size exclusion chromatography. Human PD-L2-His (Sino Biologicals), CD80-His (Sino Biologicals), CTLA4-Ig (RnD Systems) were all obtained through commercial sources.

T1 sequence (Q9NZQ7 with tags, fused parts or gaps): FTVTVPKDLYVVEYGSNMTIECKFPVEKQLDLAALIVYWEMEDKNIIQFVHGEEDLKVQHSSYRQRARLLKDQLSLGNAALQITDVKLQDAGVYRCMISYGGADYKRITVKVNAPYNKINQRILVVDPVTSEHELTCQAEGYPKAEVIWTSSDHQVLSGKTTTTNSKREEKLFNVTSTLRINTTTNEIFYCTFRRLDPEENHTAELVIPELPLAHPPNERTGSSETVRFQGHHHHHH

| IC50 (range classes) | IC50 (numeric values) | SMILES |
| --- | --- | --- |
| 100 to 10000 nM |  | CCCC[C@H]1C(=O)N[C@@H](CCCN)C(=O)N[C@H](C(=O)NCC(N)=O)CSCC(=O)N[C@@H](Cc2ccc(O)cc2)C(=O)N(C)[C@@H](C)C(=O)N[C@@H](CC(N)=O)C(=O)N2CCC[C@H]2C(=O)N[C@@H](Cc2cnc[nH]2)C(=O)N[C@@H](CC(C)C)C(=O)N2C[C@H](O)C[C@H]2C(=O)N[C@@H](Cc2c[nH]c3ccccc23)C(=O)N[C@@H](CO)C(=O)N[C@@H](Cc2c[nH]c3ccccc23)c2nnnn2[C@@H](CCCC)C(=O)N1C [Example 1050] ({CH2CO}-Y[NMeA]NPHL[Hyp]WS[X1][NMeNle][Orn]CG-NH2; thioether N-13) |
| 100 to 10000 nM |  | CCCC[C@H]1C(=O)N[C@@H](CCCN)C(=O)N[C@H](C(=O)NCC(N)=O)CSCC(=O)N[C@@H](Cc2ccc(O)cc2)C(=O)N(C)[C@@H](C)C(=O)N[C@@H](CC(N)=O)C(=O)N2CCC[C@H]2C(=O)N[C@@H](CN)C(=O)N[C@@H](CC(C)C)C(=O)N2C[C@H](O)C[C@H]2C(=O)N[C@@H](Cc2c[nH]c3ccccc23)C(=O)N[C@@H](CO)C(=O)N[C@@H](Cc2c[nH]c3ccccc23)c2nnnn2[C@@H](CCCC)C(=O)N1C [Example 1051] ({CH2CO}-Y[NMeA]NP[Dap]L[Hyp]WS[X1][NMeNle][Orn]CG-NH2; thioether N-13) |
| 10 to 99 nM |  | CCCC[C@H]1C(=O)N[C@@H](CCCNC(=N)N)C(=O)N[C@H](C(=O)NCC(N)=O)CSCC(=O)N[C@@H](Cc2ccc(O)cc2)C(=O)N(C)[C@@H](C)C(=O)N[C@@H](CC(N)=O)C(=O)N2CCC[C@H]2C(=O)N[C@@H](Cc2cnc[nH]2)C(=O)N[C@@H](CC(C)C)C(=O)N2C[C@H](O)C[C@H]2C(=O)N[C@@H](Cc2c[nH]c3ccccc23)C(=O)N[C@@H](CO)C(=O)N[C@@H](Cc2cccc3ccccc23)c2nnnn2[C@@H](CCCC)C(=O)N1C [Example 1052] |
| 10 to 99 nM |  | CCCC[C@H]1C(=O)N[C@@H](CCC(=O)O)C(=O)N[C@H](C(=O)NCC(N)=O)CSCC(=O)N[C@@H](Cc2ccc(O)cc2)C(=O)N2CCOC[C@H]2C(=O)N[C@@H](CC(N)=O)C(=O)N2CCC[C@H]2C(=O)N[C@@H](CN)C(=O)N[C@@H](CC(C)C)C(=O)N2C[C@H](O)C[C@H]2C(=O)N[C@@H](Cc2c[nH]c3ccccc23)C(=O)N[C@@H](CO)C(=O)N[C@@H](Cc2c[nH]c3ccccc23)c2nnnn2[C@@H](CCCC)C(=O)N1C [Example 1053] ({CH2CO}-Y[Morpholine(3S-CO)]NP[Dap]L[Hyp]WS[X1][NMeNle]ECG-NH2; thioether N-13) |
| 100 to 10000 nM |  | CCCC[C@H]1C(=O)N[C@@H](CCCN)C(=O)NC(C(=O)NCC(N)=O)CSCC(=O)N[C@@H](Cc2ccc(O)cc2)C(=O)N2CCOC[C@H]2C(=O)N[C@@H](CC(N)=O)C(=O)N2CCC[C@H]2C(=O)N[C@@H](CN)C(=O)N[C@@H](CC(C)C)C(=O)N2C[C@H](O)C[C@H]2C(=O)N[C@@H](Cc2c[nH]c3ccccc23)C(=O)N[C@@H](CO)C(=O)N[C@@H](Cc2c[nH]c3ccccc23)c2nnnn2[C@@H](CCCC)C(=O)N1C (stereo partly drawn) [Example 1054] ({CH2CO}-Y[Morpholine(3S-CO)]NP[Dap]L[Hyp]WS[X1][NMeNle][Orn][ξC]G-NH2; thioether N-13) |
|  | 8 nM | CCCC[C@H]1C(=O)N[C@@H](C)C(=O)N[C@H](C(=O)NCC(N)=O)CSCC(=O)N[C@@H](Cc2ccc(O)cc2)C(=O)N2CCOC[C@H]2C(=O)N[C@@H](CC(N)=O)C(=O)N2CCC[C@H]2C(=O)N[C@@H](CN)C(=O)N[C@@H](CC(C)C)C(=O)N2C[C@H](O)C[C@H]2C(=O)N[C@@H](Cc2c[nH]c3ccccc23)C(=O)N[C@@H](CO)C(=O)N[C@@H](Cc2c[nH]c3ccccc23)c2nnnn2[C@@H](CCCC)C(=O)N1C [Example 1055] ({CH2CO}-Y[Morpholine(3S-CO)]NP[Dap]L[Hyp]WS[X1][NMeNle]ACG-NH2; thioether N-13) |
| 100 to 10000 nM |  | CCCC[C@H]1C(=O)N(C)[C@@H](CCCC)C(=O)N[C@@H](CCC(=O)O)C(=O)N[C@H](C(=O)NCC(N)=O)CSCC(=O)N[C@@H](Cc2ccc(O)cc2)c2nnnn2[C@@H](C)C(=O)N[C@@H](CC(=O)O)C(=O)N2CCC[C@H]2C(=O)N[C@@H](CN)C(=O)N[C@@H](CCC(=O)O)C(=O)N2C[C@H](O)C[C@H]2C(=O)N[C@@H](Cc2c[nH]c3ccccc23)C(=O)N[C@@H](CCN)C(=O)N[C@@H](Cc2c[nH]c3ccccc23)C(=O)N1C [Example 1056] ({CH2CO}-[Tyrψ(CN4)Ala]DP[Dap]E[Hyp]W[Dab]W[NMeNle][NMeNle]ECG-NH2; thioether N-13) |
| 100 to 10000 nM |  | CCCC[C@H]1C(=O)N(C)[C@@H](CCCC)C(=O)N[C@@H](CC(C)C)C(=O)N[C@H](C(=O)NCC(N)=O)CSCC(=O)N[C@@H](Cc2ccc(O)cc2)c2nnnn2[C@@H](C)C(=O)N[C@@H](CC(N)=O)C(=O)N2CCC[C@H]2C(=O)N[C@@H](Cc2cnc[nH]2)C(=O)N[C@@H](CCC(N)=O)C(=O)N2C[C@H](O)C[C@H]2C(=O)N[C@@H](Cc2c[nH]c3ccccc23)C(=O)N[C@@H](CO)C(=O)N[C@@H](Cc2c[nH]c3ccccc23)C(=O)N1C [Example 1057] ({CH2CO}-[Tyrψ(CN4)Ala]NPHQ[Hyp]WSW[NMeNle][NMeNle]LCG-NH2; thioether N-13) |
| 10 to 99 nM |  | CCCC[C@H]1C(=O)N[C@@H](CN)C(=O)N[C@H](C(=O)NCC(N)=O)CSCC(=O)N[C@@H](Cc2ccc(O)cc2)C(=O)N2CCCC[C@H]2C(=O)N[C@@H](CC(N)=O)C(=O)N2CCC[C@H]2C(=O)N[C@@H](CN)C(=O)N[C@@H](CCC(=O)O)C(=O)N2C[C@H](O)C[C@H]2C(=O)N[C@@H](Cc2c[nH]c3ccccc23)C(=O)N[C@@H](CCN)C(=O)N[C@@H](Cc2cccc3ccccc23)c2nnnn2[C@@H](CCCC)C(=O)N1C [Example 1059] |
| 100 to 10000 nM |  | CCCC[C@H]1C(=O)N(C)[C@@H](CCCC)C(=O)N[C@@H](CC(C)C)C(=O)N[C@H](C(=O)NCC(=O)O)CSCC(=O)N[C@@H](Cc2ccc(O)cc2)c2nnnn2[C@@H](C)C(=O)N[C@@H](CC(N)=O)C(=O)N2CCC[C@H]2C(=O)NC(Cc2c[nH]cn2)C(=O)N[C@@H](CCC(N)=O)C(=O)N2C[C@H](O)C[C@H]2C(=O)N[C@@H](Cc2c[nH]c3ccccc23)C(=O)N[C@@H](CO)C(=O)N[C@@H](Cc2csc3ccccc23)C(=O)N1C (stereo partly shown) [Example 1061] ({CH2CO}-[Tyrψ(CN4)Ala]NP[ξH]Q[Hyp]WS[Bta][NMeNle][NMeNle]LCG-OH; thioether N-13) |
| 100 to 10000 nM |  | CCCC[C@H]1C(=O)N[C@@H](CCC(=O)O)C(=O)N[C@H](C(=O)NCC(N)=O)CSCC(=O)N[C@@H](Cc2ccc(O)cc2)C(=O)N(C)[C@@H](C)C(=O)N[C@@H](CC(=O)O)C(=O)N2CCC[C@H]2C(=O)N[C@@H](CN)C(=O)N[C@@H](CCC(=O)O)C(=O)N2C[C@H](O)C[C@H]2C(=O)N[C@@H](Cc2c[nH]c3ccccc23)C(=O)N[C@@H](CO)C(=O)N[C@@H](Cc2c[nH]c3ccccc23)c2nnnn2[C@@H](CCCC)C(=O)N1C [Example 1101] ({CH2CO}-Y[NMeA]DP[Dap]E[Hyp]WS[X1][NMeNle]ECG-NH2; thioether N-13) |
| 100 to 10000 nM |  | CCCC[C@H]1C(=O)N[C@@H](CCC(=O)O)C(=O)N[C@H](C(=O)NCC(N)=O)CSCC(=O)N[C@@H](Cc2ccc(O)cc2)C(=O)N(C)[C@@H](C)C(=O)N[C@@H](CC(N)=O)C(=O)N2CCC[C@H]2C(=O)N[C@@H](CN)C(=O)N[C@@H](CC(C)C)C(=O)N2C[C@H](O)C[C@H]2C(=O)N[C@@H](Cc2c[nH]c3ccccc23)C(=O)N[C@@H](CO)C(=O)N[C@@H](Cc2c[nH]c3ccccc23)c2nnnn2[C@@H](CCCC)C(=O)N1C [Example 1102] ({CH2CO}-Y[NMeA]NP[Dap]L[Hyp]WS[X1][NMeNle]ECG-NH2; thioether N-13) |

| SMILES | IC50 (range classes) | IC50 (numeric values) |
| --- | --- | --- |
| CCCC[C@H]1C(=O)N[C@@H](C)C(=O)N[C@H](C(=O)NCC(N)=O)CSCC(=O)N[C@@H](Cc2ccc(O)cc2)C(=O)N(C)[C@@H](C)C(=O)N[C@@H](CC(N)=O)C(=O)N2CCC[C@H]2C(=O)N[C@@H](CN)C(=O)N[C@@H](CC(C)C)C(=O)N2C[C@H](O)C[C@H]2C(=O)N[C@@H](Cc2c[nH]c3ccccc23)C(=O)N[C@@H](CO)C(=O)N[C@@H](Cc2c[nH]c3ccccc23)c2nnnn2[C@@H](CCCC)C(=O)N1C [Example 1100] ({CH2CO}-Y[NMeA]NP[Dap]L[Hyp]WS[X1][NMeNle]ACG-NH2; thioether N-13) | 100 to 10000 nM |  |
